Results reported in PubChem BioAssay AID2060910 (Molecular Pharmacology Branch, DTP, NCI, 2025).

Test system: 242566-281-R-J2-PDC complex spheroid viability
Test: Anticancer human tumor 242566-281-R-J2-PDC patient-derived pancreatic carcinoma cell line growth inhibition [RAS]
Details: for IC50: curve of first compound; for viability, T/C: stronger effect = lower value; active = viability on the fitted dose curve at most 10% of control; inactive = the rest
Description: RAS pathway inhibitors in Combinations in Complex Spheroids
A high-throughput screen of multi-cell type tumor spheroids was designed to identify active combinations of RAS pathway inhibitors and targeted small molecules. Complex spheroids include a stromal component modeled by human endothelial cells (HUVEC) and fibroblasts modeled by human mesenchymal stem cells (MSCs). The concentration ranges selected for each drug and investigational agent were based upon clinically achievable concentrations if the clinical Cmax of the agent was known.
Compounds. The drugs and investigational agents: abemaciclib (NSC768073), cobimetinib (NSC768068), divarasib (GDC6063, NSC841802), docetaxel (NSC628503), GDC-1971 (RLY-1971, NSC841576), gemcitabine (NSC613327), inavolisib (NSC800729), ipatasertib (NSC767898), KB-0742 (NSC834161), MRTX-1133 (NSC836407), osimertinib (NSC779217), RMC-4630 (NSC839698), RMC-6236 (NSC851965), RMC-6291 (NSC852671), Ro-3306 (NSC812927), sapanisertib (NSC764658), SN-38 (NSC673596), staurosporine (NSC755774), SY5609 (NSC837396), and tovorafenib (DAY101, NSC766906), were obtained from the National Cancer Institute (NCI) Developmental Therapeutics Program Chemical Repository. The FDA-approved anticancer drug set is available from the NCI Developmental Therapeutics Program. […] The stock solutions were prepared in dimethyl sulfoxide (DMSO, Sigma-Aldrich, St. Louis, MO, cat. D2650) at 800-fold the tested concentration and stored at -70 degrees C prior to their use. All drugs and investigational agents were tested over a range starting from a high concentration at or near the clinical Cmax and decreasing in half-log increments. If the clinical Cmax for an agent had not been determined, the highest concentration tested was 10 microM.
Cell Culture. All cells were maintained in an incubator at 37 degrees C and 5% CO2 with 95% humidity. The PDC lines were cultured according to standard operating procedures established by the NCI PDMR. All PDCs were thawed and cultured in Matrigel-coated flasks prepared with a working solution of 1X Ham's F-12 nutrient mix, without supplementation (Invitrogen, Waltham, MA, cat. 11765054), 100 U/mL penicillin-streptomycin (Invitrogen, cat. 15140122), and 2.5% Matrigel (Corning Inc., Corning, NY, cat. 354248) for the first three passages. The 362531-283-R-J2-PDC and 782815-120-R-J1-PDC lines were cultured in 6C/Colon 1B media, which includes advanced DMEM/F-12 (Thermo Fisher Scientific, cat. 12634028), 10 mM HEPES (Thermo Fisher Scientific, cat. 15630080), 1X GlutaMAX supplement (Thermo Fisher Scientific, cat. 35050061), 0.1 mg/mL primocin (InvivoGen, San Diego, CA, cat. ant-pm-2), 10% defined fetal bovine serum, heat inactivated (HyClone Laboratories Inc., Logan, UT, cat. SH30070.03HI), 50% L-WRN conditioned media (ATCC, cat. CRL-3276), 1.25 mM N-Acetyl-L-cysteine (Sigma-Aldrich, cat. A9165), 10 mM nicotinamide (Sigma-Aldrich, cat. N0636), 1X B-27 supplement (Thermo Fisher Scientific, cat. 17504044), 1X N-2 supplement (Thermo Fisher Scientific, cat. 17502048), 50 ng/mL human EGF (Thermo Fisher Scientific, cat. PHG0311), and 10 microM Y-27632 dihydrochloride (Tocris Bioscience, cat. 1254). The K12877-001-R-J1-PDC line was cultured in 6I media, which includes all 6C/Colon 1B media plus 10 ng/mL human FGF-10 (PeproTech, cat. 100-26), 1 ng/mL human FGF-2 (PeproTech, cat. 100-18B), 1 µM prostaglandin E2 (Tocris Bioscience, cat. 2296), […] hydrocortisone (Sigma-Aldrich, cat. H4001), and […] bovine insulin (Sigma-Aldrich, cat. I6634). The K86415-001-R-J1-PDC line was cultured in 6D media, which includes all 6C/Colon 1B media components minus the L-WRN conditioned media. The 485176-168-R4-J1-PDC was cultured in PANC media, which includes all 6C/Colon 1B media plus 100 ng/mL human FGF-10 (PeproTech, cat. 100-26), 500 nM SB-431542 (Selleckchem, cat. S1067), and 10 nM gastrin (Tocris Bioscience, cat. 3006). […]
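Note: spheroids exposed to compound for 7 days before readout.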
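Throughout, for viability, T/C: 100% = DMSO vehicle control wells.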

CCc1c2c(nc3ccc(O)cc13)-c1cc3c(c(=O)n1C2)COC(=O)[C@]3(O)CC + CCn1c(-c2cc(N3CCN(C)CC3)cnc2C(C)OC)c2c3cc(ccc31)-c1csc(n1)CC(NC(=O)C1CC1C)C(=O)N1CCCC(N1)C(=O)OCC(C)(C)C2
< 0.949 nM: IC50 (second compound 0.00949 µM) | IC50 (second compound 0.03 µM) | IC50 (second compound 0.0949 µM) | IC50 (second compound 0.3 µM)
inactive: viability, T/C (second compound 0.000949 µM, first compound 0.000949 µM) 101% | viability, T/C (second compound 0.000949 µM, first compound 0.003 µM) 89% | viability, T/C (second compound 0.000949 µM, first compound 0.00949 µM) 49.6% | viability, T/C (second compound 0.000949 µM, first compound 0.03 µM) 40.2% | viability, T/C (second compound 0.000949 µM, first compound 0.0949 µM) 22.3% | viability, T/C (second compound 0.000949 µM, first compound 0.3 µM) 9.11% | viability, T/C (second compound 0.003 µM, first compound 0.000949 µM) 92.3% | viability, T/C (second compound 0.003 µM, first compound 0.003 µM) 62.8% | viability, T/C (second compound 0.003 µM, first compound 0.00949 µM) 43.8% | viability, T/C (second compound 0.003 µM, first compound 0.03 µM) 29.8% | viability, T/C (second compound 0.003 µM, first compound 0.0949 µM) 19.4% | viability, T/C (second compound 0.00949 µM, first compound 0.000949 µM) 48.8% | viability, T/C (second compound 0.00949 µM, first compound 0.003 µM) 39.1% | viability, T/C (second compound 0.00949 µM, first compound 0.00949 µM) 38.8% | viability, T/C (second compound 0.00949 µM, first compound 0.03 µM) 24.8% | viability, T/C (second compound 0.00949 µM, first compound 0.0949 µM) 17.9% | viability, T/C (second compound 0.00949 µM, first compound 0.3 µM) 12.2% | viability, T/C (second compound 0.03 µM, first compound 0.000949 µM) 33% | viability, T/C (second compound 0.03 µM, first compound 0.003 µM) 32.8% | viability, T/C (second compound 0.03 µM, first compound 0.00949 µM) 27% | viability, T/C (second compound 0.03 µM, first compound 0.03 µM) 21.1% | viability, T/C (second compound 0.03 µM, first compound 0.0949 µM) 13.9% | viability, T/C (second compound 0.03 µM, first compound 0.3 µM) 11.9% | viability, T/C (second compound 0.0949 µM, first compound 0.000949 µM) 22.9% | viability, T/C (second compound 0.0949 µM, first compound 0.003 µM) 24.1% | viability, T/C (second compound 0.0949 µM, first compound 0.00949 µM) 21.8% | viability, T/C (second compound 0.0949 µM, first compound 0.03 µM) 15.9% | viability, T/C (second compound 0.0949 µM, first compound 0.0949 µM) 11.2% | viability, T/C (second compound 0.3 µM, first compound 0.000949 µM) 22.7% | viability, T/C (second compound 0.3 µM, first compound 0.003 µM) 20.4% | viability, T/C (second compound 0.3 µM, first compound 0.00949 µM) 18.1% | viability, T/C (second compound 0.3 µM, first compound 0.03 µM) 12.5% | viability, T/C (second compound 0.3 µM, first compound 0.0949 µM) 13.3%
6.76 nM: IC50 (second compound 0.003 µM)
14.5 nM: IC50 (second compound 0.000949 µM)
active: viability, T/C (second compound 0.003 µM, first compound 0.3 µM) 8.62% | viability, T/C (second compound 0.0949 µM, first compound 0.3 µM) 9.7% | viability, T/C (second compound 0.3 µM, first compound 0.3 µM) 8.58%

Nc1ccn(C2OC(CO)C(O)C2(F)F)c(=O)n1 (centres undefined) + CCn1c(-c2cccnc2C(C)OC)c2c3cc(ccc31)N1CCOC(CC(NC(=O)C(C(C)C)N(C)C(=O)C3(F)CCN(C(=O)C#CC(C)(C)N(C)C)CC3)C(=O)N3CCCC(N3)C(=O)OCC(C)(C)C2)C1
67.9 nM: IC50 (second compound 0.03 µM)
90.1 nM: IC50 (second compound 0.00949 µM)
72.2 nM: IC50 (second compound 0.003 µM)
75.3 nM: IC50 (second compound 0.0949 µM)
inactive: viability, T/C (second compound 0.000949 µM, first compound 0.00316 µM) 114% | viability, T/C (second compound 0.000949 µM, first compound 0.01 µM) 88% | viability, T/C (second compound 0.000949 µM, first compound 0.0316 µM) 50.5% | viability, T/C (second compound 0.000949 µM, first compound 0.1 µM) 45.3% | viability, T/C (second compound 0.000949 µM, first compound 0.316 µM) 23.3% | viability, T/C (second compound 0.000949 µM, first compound 1 µM) 11.2% | viability, T/C (second compound 0.003 µM, first compound 0.00316 µM) 104% | viability, T/C (second compound 0.003 µM, first compound 0.01 µM) 87.2% | viability, T/C (second compound 0.003 µM, first compound 0.0316 µM) 71.2% | viability, T/C (second compound 0.003 µM, first compound 0.1 µM) 42% | viability, T/C (second compound 0.003 µM, first compound 0.316 µM) 21.2% | viability, T/C (second compound 0.003 µM, first compound 1 µM) 11.6% | viability, T/C (second compound 0.00949 µM, first compound 0.00316 µM) 104% | viability, T/C (second compound 0.00949 µM, first compound 0.01 µM) 92.3% | viability, T/C (second compound 0.00949 µM, first compound 0.0316 µM) 81.2% | viability, T/C (second compound 0.00949 µM, first compound 0.1 µM) 46.6% | viability, T/C (second compound 0.00949 µM, first compound 0.316 µM) 21.6% | viability, T/C (second compound 0.00949 µM, first compound 1 µM) 13.2% | viability, T/C (second compound 0.03 µM, first compound 0.00316 µM) 101% | viability, T/C (second compound 0.03 µM, first compound 0.01 µM) 96% | viability, T/C (second compound 0.03 µM, first compound 0.0316 µM) 68.5% | viability, T/C (second compound 0.03 µM, first compound 0.1 µM) 41.9% | viability, T/C (second compound 0.03 µM, first compound 0.316 µM) 16.4% | viability, T/C (second compound 0.03 µM, first compound 1 µM) 12% | viability, T/C (second compound 0.0949 µM, first compound 0.00316 µM) 86.4% | viability, T/C (second compound 0.0949 µM, first compound 0.01 µM) 87.1% | viability, T/C (second compound 0.0949 µM, first compound 0.0316 µM) 64.7% | viability, T/C (second compound 0.0949 µM, first compound 0.1 µM) 49.2% | viability, T/C (second compound 0.0949 µM, first compound 0.316 µM) 14.1% | viability, T/C (second compound 0.0949 µM, first compound 1 µM) 13.4% | viability, T/C (second compound 0.3 µM, first compound 0.00316 µM) 91.7% | viability, T/C (second compound 0.3 µM, first compound 0.01 µM) 81.8% | viability, T/C (second compound 0.3 µM, first compound 0.0316 µM) 65.6% | viability, T/C (second compound 0.3 µM, first compound 0.1 µM) 28.4% | viability, T/C (second compound 0.3 µM, first compound 0.316 µM) 15.5% | viability, T/C (second compound 0.3 µM, first compound 1 µM) 10.1%
53 nM: IC50 (second compound 0.000949 µM)
50.5 nM: IC50 (second compound 0.3 µM)
